Results from patent EP2371816A1, “Aminocyclohexenone, their preparation and use as medicament against oxidative stress” (ABIOGEN PHARMA S.p.A., priority 2010, dated 2011).

Key:
C6 cells (rat glioma) = test: In vitro inhibition of CHP-induced oxidative stress (DCF fluorescence) in C6 cells; type: cell-based; settings: 500 µM CHP, compound 4, 20, 100 and 500 µM, 30 minutes at 37 °C, range given for both cell lines together
Experimental: (§1) The method used was essentially the one reported by Rüweler M. et al. ("Inhibition of peroxide-induced radical generation by plant polyphenols in C6 astroglioma cells" (2008) Toxicol in vitro 22, 1377-81), with a few minor modifications.
(§2) The cells were seeded in phenol-red free DMEM (Sigma Aldrich) into 96-well plates with 5% FBS and 20 mM HEPES at a density of 40,000 cells/well. After 48 hours, the medium was substituted by HBSS (Hanks' Balanced Salt Solution, Sigma) containing 10 µM of dihydro-2',7'-dichlorofluorescein diacetate (H2DCF-DA, Sigma Aldrich) and incubated in darkness for 30 minutes at 37 °C, in order to load the cells with fluorescent dye. H2DCF-DA was hydrolyzed enzymatically by the intracellular esterases to form non-fluorescent H2DCF, which was then rapidly oxidized to form 2',7'-dichlorofluorescein (DCF) being highly fluorescent in the presence of reactive species (RS). The intensity of DCF fluorescence is directly proportional to the amount of RS formed.
(§3) After carrying out two washes, the cells were exposed to 500 µM of CHP and various concentrations (4, 20, 100 and 500 µM) of the compounds of the invention for 30 minutes at 37 °C. Fluorescence was then measured, after cell washing, by a microplate reader at an excitation wavelength of 485 nm and an emission wavelength of 535 nm.
(§4) Six wells per plate per concentration of test composition (compound + CHP) and per control (HBSS without CHP) were measured and 12 wells were used as reference for CHP-induced stress. In addition, each 96-well plate contained 6 wells that received the highest concentration of the tested compounds without CHP, to investigate whether the compounds of the invention alone were able to induce cellular radical formation.
(§5) When using this assay, it should be borne in mind that DCF fluorescence is a generalized indicator of oxidative stress rather than of any particular reactive species, i.e. it is not a direct assay for H2O2 or other reactive species (Halliwell B, Whiteman M. (2004) "Measuring reactive species and oxidative damage in vivo and in cell culture: how should you do it and what do the results mean?" Br. J. Pharmacol. 142 231-255). Therefore, when an increase in DCF fluorescence induced by exposure of cells to CHP was measured, as was undertaken in these assays, it was not possible to deduce which reactive species was responsible. Inhibition of CHP-induced fluorescence was evaluated by means of different concentrations of the compounds of the invention and comparative compounds such as Trolox and edaravone.

[1] = tested on: BAEC cells (bovine aortic endothelial); test: In vitro inhibition of CHP-induced oxidative stress (DCF fluorescence) in BAEC cells; type: cell-based; settings: 500 µM CHP, compound 4, 20, 100 and 500 µM, 30 minutes at 37 °C, range given for both cell lines together
Experimental: as §1, §2, §3, §4, §5

[2] = TEAC method (Trolox Equivalent Antioxidant Capacity Assay); settings: ratio of gradient to gradient of reference (trolox); 37 °C, 650 nm, pH 4.5
From the text: This assay is used to measure the total antioxidant activity of pure substances, biological fluids and plant compounds and is based on the reaction of antioxidants with the cation radical ABTS^˙+ (2,2'-azinobis(3-ethylbenzothiazolin-6-sulphonate)). This cation radical is metastable and has to be generated just before the experiment by reacting ABTS with hydrogen peroxide in the presence of HRP.
This radical can be reduced, with consequent loss of absorbance, by an antioxidant whose scavenging capacity can be measured spectrophotometrically at 650 nm. The test is carried out at 37 °C and the results are obtained from a comparison with Trolox (a synthetic antioxidant and hydrophilic analogue of vitamin E).
The ABTS solution S1 was prepared as follows: • 20 mg of ABTS were added to 50 mM of citric acid buffer (40 ml) at pH=4.5 and to the resulting solution there was added an aqueous solution of HRP (4.4 mg, 400 µl) and an aqueous solution of H2O2 (10 µl of a 30% solution diluted with 16.3 ml of water).
For each of the compounds (2), (6) and (7), as synthesized above, there was prepared a 600 µM solution in water, methanol or DMSO according to its solubility, as well as a Trolox solution as reference.
Each solution was diluted to produce 6 solutions each at a concentration between 25 µM and 300 µM. From each of the diluted and divided solutions, there were withdrawn 20 µl to which 200 µl of solution S1 were then added.
The decrease in absorbance of each solution thus obtained was monitored at 650 nm until a stable value was reached (about 90 minutes).
For each set of 6 solutions and for the reference trolox solution, the absorption was given in graph form as a function of the amount of compound (nmol) in the solution. The gradient of the straight line obtained by linear interpolation was determined according to the least squares method. The TEAC value of each compound of the invention is given in the table below and is expressed as the ratio between the gradient of the resulting straight line and the gradient of the reference (trolox) straight line.

Row | SMILES | Inhibition of CHP-induced fluorescence (C6 cells (rat glioma)) | Inhibition of CHP-induced fluorescence [1] | TEAC [2]
1 | O=C1C=C(NCCN2CCCCC2)CC(c2ccccc2)C1 (centres unmarked) [(3), 5-phenyl-3-(2-(piperidin-1-yl)ethylamino)cyclohex-2-enone] | effective | effective | –
2 | CC1(C)CC(=O)C=C(NN2CCCCC2)C1 [(6), 5,5-dimethyl-3-(piperidin-1-ylamino)cyclohex-2-enone] | – | – | 1.2
3 | CC1(C)CC(=O)C=C(NCCN2CCCCC2)C1 [(1), 5,5-dimethyl-3-(2-(piperidin-1-yl)ethylamino)cyclohex-2-enone] | effective | effective | –
